ChEMBL document CHEMBL5303573, “Mapping human microbiome drug metabolism by gut bacteria and their genes” (Nature, 2019)

Experiments:
[1] = The drug is tested on Bacteroides coprophilus strain: DSM18228 for biotransformation. The drug concentrations were measured before and after a 12-h incubation by liquid-chromatography-coupled mass spectrometry (LC–MS); conditions: 2 µM
[2] = The drug is tested on Ruminococcus torques strain: ATCC27756 for biotransformation. The drug concentrations were measured before and after a 12-h incubation by liquid-chromatography-coupled mass spectrometry (LC–MS); assay type: ADME; design: dose 2 uM, timepoint 0 vs 12 hours; conditions: 2 µM
[3] = The drug is tested on Collinsella aerofaciens strain: ATCC25986 for biotransformation. The drug concentrations were measured before and after a 12-h incubation by liquid-chromatography-coupled mass spectrometry (LC–MS); conditions: 2 µM
[4] = The drug is tested on Bacteroides sp. WH2 strain: WH2 for biotransformation. The drug concentrations were measured before and after a 12-h incubation by liquid-chromatography-coupled mass spectrometry (LC–MS); conditions: bacteroides sp. wh2, 12 h, 2 µM
[5] = The drug is tested on Bifidobacterium breve strain: DSM20213 for biotransformation. The drug concentrations were measured before and after a 12-h incubation by liquid-chromatography-coupled mass spectrometry (LC–MS); conditions: 2 µM
[6] = bifidobacterium adolescentis, 12 h, 2 µM
Description: The drug is tested on Bifidobacterium adolescentis strain: ATCC 15703 for biotransformation. The drug concentrations were measured before and after a 12-h incubation by liquid-chromatography-coupled mass spectrometry (LC–MS)

[7] = The drug is tested on Providencia stuartii strain: ATCC25827 for biotransformation. The drug concentrations were measured before and after a 12-h incubation by liquid-chromatography-coupled mass spectrometry (LC–MS); conditions: 2 µM
[8] = parabacteroides johnsonii, 12 h, 2 µM
Description: The drug is tested on Parabacteroides johnsonii strain: DSM18315 for biotransformation. The drug concentrations were measured before and after a 12-h incubation by liquid-chromatography-coupled mass spectrometry (LC–MS)

[9] = The drug is tested on Bacteroides xylanisolvens strain: DSM18836 for biotransformation. The drug concentrations were measured before and after a 12-h incubation by liquid-chromatography-coupled mass spectrometry (LC–MS); conditions: 2 µM
[10] = enterocloster bolteae, 12 h, 2 µM
Description: The drug is tested on Clostridium bolteae strain: ATCCBAA-613 for biotransformation. The drug concentrations were measured before and after a 12-h incubation by liquid-chromatography-coupled mass spectrometry (LC–MS)

[11] = The drug is tested on Eubacterium hallii strain: DSM3353 for biotransformation. The drug concentrations were measured before and after a 12-h incubation by liquid-chromatography-coupled mass spectrometry (LC–MS); conditions: anaerobutyricum hallii, 2 µM
[12] = The drug is tested on Clostridium ramosum strain: DSM1402 for biotransformation. The drug concentrations were measured before and after a 12-h incubation by liquid-chromatography-coupled mass spectrometry (LC–MS); conditions: thomasclavelia ramosa, 2 µM
[13] = The drug is tested on Eubacterium ventriosum strain: ATCC27560 for biotransformation. The drug concentrations were measured before and after a 12-h incubation by liquid-chromatography-coupled mass spectrometry (LC–MS); assay type: ADME; design: dose 2 uM, timepoint 0 vs 12 hours; conditions: 2 µM
[14] = The drug is tested on Enterococcus faecalis strain: V583 for biotransformation. The drug concentrations were measured before and after a 12-h incubation by liquid-chromatography-coupled mass spectrometry (LC–MS); conditions: 2 µM
[15] = The drug is tested on Escherichia coli strain: BW25113 for biotransformation. The drug concentrations were measured before and after a 12-h incubation by liquid-chromatography-coupled mass spectrometry (LC–MS); conditions: 2 µM
[16] = The drug is tested on Bifidobacterium longum subsp. Infantis strain: CCUG52486 for biotransformation. The drug concentrations were measured before and after a 12-h incubation by liquid-chromatography-coupled mass spectrometry (LC–MS); conditions: 2 µM
[17] = The drug is tested on Eubacterium rectale strain: ATCC33656 for biotransformation. The drug concentrations were measured before and after a 12-h incubation by liquid-chromatography-coupled mass spectrometry (LC–MS); conditions: agathobacter rectalis, 2 µM
[18] = The drug is tested on Bacteroides ovatus strain: ATCC8483 for biotransformation. The drug concentrations were measured before and after a 12-h incubation by liquid-chromatography-coupled mass spectrometry (LC–MS); conditions: 2 µM
[19] = The drug is tested on Bacteroides fragilis strain: HMW615 for biotransformation. The drug concentrations were measured before and after a 12-h incubation by liquid-chromatography-coupled mass spectrometry (LC–MS); conditions: 2 µM

| Compound | Bacterial Biotransformation [1] | Bacterial Biotransformation [2] | Bacterial Biotransformation [3] | Bacterial Biotransformation [4] | Bacterial Biotransformation [5] | Bacterial Biotransformation [6] | Bacterial Biotransformation [7] | Bacterial Biotransformation [8] | Bacterial Biotransformation [9] | Bacterial Biotransformation [10] | Bacterial Biotransformation [11] | Bacterial Biotransformation [12] | Bacterial Biotransformation [13] | Bacterial Biotransformation [14] | Bacterial Biotransformation [15] | Bacterial Biotransformation [16] | Bacterial Biotransformation [17] | Bacterial Biotransformation [18] | Bacterial Biotransformation [19] |
| --- | --- | --- | --- | --- | --- | --- | --- | --- | --- | --- | --- | --- | --- | --- | --- | --- | --- | --- | --- |
| CCCC(=O)Nc1ccc(OCC(O)CNC(C)C)c(C(C)=O)c1 (stereo unspecified) [ACEBUTOLOL] | Compound NOT metabolized | Compound NOT metabolized | Compound NOT metabolized | Compound NOT metabolized | Compound NOT metabolized | Compound NOT metabolized | Compound NOT metabolized | Compound NOT metabolized | Compound NOT metabolized | Compound NOT metabolized | Compound NOT metabolized | Compound NOT metabolized | Compound NOT metabolized | Compound NOT metabolized | Compound NOT metabolized | Compound NOT metabolized | Compound NOT metabolized | Compound NOT metabolized | – |
| NC12CC3CC(CC(C3)C1)C2 [AMANTADINE] | Compound NOT metabolized | Compound NOT metabolized | Compound NOT metabolized | Compound NOT metabolized | Compound NOT metabolized | Compound NOT metabolized | Compound NOT metabolized | Compound NOT metabolized | – | Compound NOT metabolized | Compound NOT metabolized | Compound NOT metabolized | Compound NOT metabolized | Compound NOT metabolized | – | Compound NOT metabolized | Compound NOT metabolized | Compound NOT metabolized | Compound NOT metabolized |
| CC(C)(C#N)c1cc(Cn2cncn2)cc(C(C)(C)C#N)c1 [ANASTROZOLE] | Compound metabolized | Compound NOT metabolized | Compound NOT metabolized | Compound NOT metabolized | Compound NOT metabolized | Compound NOT metabolized | Compound NOT metabolized | Compound metabolized | Compound metabolized | Compound NOT metabolized | Compound NOT metabolized | Compound NOT metabolized | Compound NOT metabolized | Compound NOT metabolized | – | Compound NOT metabolized | Compound NOT metabolized | Compound metabolized | Compound NOT metabolized |
| CC(C)NCC(O)COc1ccc(COCCOC(C)C)cc1.CC(C)NCC(O)COc1ccc(COCCOC(C)C)cc1.O=C(O)/C=C/C(=O)O (stereo unspecified) [BISOPROLOL FUMARATE] | Compound NOT metabolized | Compound NOT metabolized | Compound NOT metabolized | Compound NOT metabolized | Compound NOT metabolized | Compound NOT metabolized | Compound NOT metabolized | Compound NOT metabolized | Compound NOT metabolized | Compound NOT metabolized | Compound NOT metabolized | Compound NOT metabolized | Compound NOT metabolized | Compound NOT metabolized | – | Compound NOT metabolized | Compound NOT metabolized | Compound NOT metabolized | Compound NOT metabolized |
| CN/C(=N/CCSCc1nc[nH]c1C)NC#N [CIMETIDINE] | – | Compound NOT metabolized | Compound NOT metabolized | Compound NOT metabolized | Compound NOT metabolized | Compound NOT metabolized | Compound NOT metabolized | – | Compound NOT metabolized | Compound NOT metabolized | Compound NOT metabolized | Compound NOT metabolized | Compound NOT metabolized | Compound NOT metabolized | Compound NOT metabolized | – | Compound NOT metabolized | – | – |
| CN1CCC[C@@H]1CCO[C@](C)(c1ccccc1)c1ccc(Cl)cc1.O=C(O)/C=C/C(=O)O [CLEMASTINE FUMARATE] | Compound metabolized | Compound NOT metabolized | Compound NOT metabolized | – | Compound NOT metabolized | – | Compound NOT metabolized | Compound NOT metabolized | Compound metabolized | Compound NOT metabolized | Compound NOT metabolized | Compound NOT metabolized | Compound NOT metabolized | – | Compound metabolized | Compound NOT metabolized | – | Compound NOT metabolized | Compound NOT metabolized |
| CC(C(=O)O)c1ccc2c(c1)Cc1cccnc1O2 (stereo unspecified) [PRANOPROFEN] | Compound metabolized | – | Compound NOT metabolized | Compound metabolized | Compound metabolized | – | Compound metabolized | Compound metabolized | Compound metabolized | Compound metabolized | Compound metabolized | Compound metabolized | Compound metabolized | Compound NOT metabolized | Compound metabolized | Compound metabolized | – | Compound metabolized | Compound metabolized |
